Data taken from patent US20250230166A1, “OXADIAZOLE HDAC6 INHIBITORS AND USES THEREOF” (Eikonizo Therapeutics, Inc., priority 2022, published 2025).

Biological target: T1, Full length Human HDAC6 (Homo sapiens, UniProt Q9UBN7)
T1 construct: Full length Human HDAC6; FLAG (C); host or cells: baculovirus expression system
T1 sequence (Q9UBN7 1-1215): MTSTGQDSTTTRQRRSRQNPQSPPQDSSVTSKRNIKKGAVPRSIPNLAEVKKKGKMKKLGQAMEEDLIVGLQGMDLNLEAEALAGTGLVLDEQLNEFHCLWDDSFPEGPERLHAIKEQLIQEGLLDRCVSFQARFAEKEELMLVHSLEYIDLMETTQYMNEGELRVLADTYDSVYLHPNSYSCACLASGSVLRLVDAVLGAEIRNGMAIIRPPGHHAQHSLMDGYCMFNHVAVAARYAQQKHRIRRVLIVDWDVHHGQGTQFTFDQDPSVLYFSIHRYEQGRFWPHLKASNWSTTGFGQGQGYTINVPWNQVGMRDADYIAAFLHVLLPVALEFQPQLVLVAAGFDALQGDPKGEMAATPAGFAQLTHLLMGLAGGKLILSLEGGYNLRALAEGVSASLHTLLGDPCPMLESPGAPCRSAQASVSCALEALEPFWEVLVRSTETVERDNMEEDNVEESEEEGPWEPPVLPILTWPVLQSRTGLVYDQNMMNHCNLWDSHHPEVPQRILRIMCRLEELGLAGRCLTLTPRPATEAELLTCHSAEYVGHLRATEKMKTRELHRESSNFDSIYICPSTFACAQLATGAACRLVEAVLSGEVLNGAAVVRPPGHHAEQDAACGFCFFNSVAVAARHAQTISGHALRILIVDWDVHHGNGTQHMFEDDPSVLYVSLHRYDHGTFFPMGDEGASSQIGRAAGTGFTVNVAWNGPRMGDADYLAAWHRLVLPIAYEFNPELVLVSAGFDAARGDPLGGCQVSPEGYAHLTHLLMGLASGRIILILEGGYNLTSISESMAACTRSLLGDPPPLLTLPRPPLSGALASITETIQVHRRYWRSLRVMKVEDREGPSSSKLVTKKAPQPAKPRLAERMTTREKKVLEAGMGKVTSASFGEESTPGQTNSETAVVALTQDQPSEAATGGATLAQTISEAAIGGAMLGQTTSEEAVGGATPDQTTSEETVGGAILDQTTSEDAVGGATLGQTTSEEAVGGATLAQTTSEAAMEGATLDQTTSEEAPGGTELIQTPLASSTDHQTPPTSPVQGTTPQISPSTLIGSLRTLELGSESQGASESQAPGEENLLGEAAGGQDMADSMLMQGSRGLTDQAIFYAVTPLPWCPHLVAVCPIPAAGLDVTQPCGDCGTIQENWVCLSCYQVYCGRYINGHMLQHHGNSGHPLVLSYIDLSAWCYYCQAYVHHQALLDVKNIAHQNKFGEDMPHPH
Experiment: In vitro HDAC6 enzymatic activity (Caliper endpoint assay or Nanosyn fluorogenic format)
Assay type: biochemical
Settings: 30 min pre-incubation with enzyme

Row | SMILES | IC50 [nM]
1 | FC(F)c1nnc(-c2ccc(COc3ccc4cccnc4c3)nc2)o1 [Compound 34, 2-(difluoromethyl)-5-[6-(7-quinolyloxymethyl)-3-pyridyl]-1,3,4-oxadiazole] | 1 to 100
2 | FC(F)c1nnc(-c2ccc(COc3cccc4ncccc34)nc2)o1 [Compound 63, 2-(difluoromethyl)-5-[6-(5-quinolyloxymethyl)-3-pyridyl]-1,3,4-oxadiazole] | 1 to 100
